The source made the active and inactive calls. No cut-off for these calls is given here.
What was measured:
[1] = Toxicity in PD-1/PD-L1 humanized C57/BL6 mouse implanted with mouse MC38 cells assessed as morphological change in liver at 50 mg/kg, IG qd administered on day 5 measured after 2 weeks by hematoxylin-eosin staining based inverted fluorescent microscopic analysis; type: organism-based, MC-38; details: in vivo, po, 336 h
[2] = AUC (0 to infinity) in Sprague-Dawley rat at 10 mg/kg, ip measured upto 48 hrs by LC-MS/MS analysis; type: ADME, organism-based; design: time < 48 hrs, dose 10 mg/kg, route ip; details: in vivo
[3] = test system: MC-38; assay: Antitumor activity against mouse MC38 cells implanted in PD-1/PD-L1 humanized C57/BL6 mouse assessed as reduction in tumor growth at 50 mg/kg, IG qd administered on day 5 measured after 2 weeks; type: functional, organism-based
[4] = AUC (0 to t) in Sprague-Dawley rat at 40 mg/kg, IG measured upto 48 hrs by LC-MS/MS analysis; type: ADME, organism-based; design: dose 40 mg/kg, time < 48 hrs, route ig; details: in vivo, po
[5] = target: Programmed cell death 1 ligand 1 (Homo sapiens, UniProt Q9NZQ7); assay: Binding affinity to human PD-L1 expressed in Escherichia coli strain BL21 assessed as dissociation constant by NMR spectroscopic analysis
[6] = Clearance in Sprague-Dawley rat at 40 mg/kg, IG measured upto 48 hrs by LC-MS/MS analysis; type: ADME, organism-based; details: Sprague-Dawley, in vivo, po
[7] = AUC (0 to t) in Sprague-Dawley rat at 8 mg/kg, iv measured upto 48 hrs by LC-MS/MS analysis; type: ADME, organism-based; design: dose 8 mg/kg, time < 48 hrs, route iv; details: in vivo
[8] = Toxicity in PD-1/PD-L1 humanized C57/BL6 mouse implanted with mouse MC38 cells assessed as morphological change in lung at 50 mg/kg, IG qd administered on day 5 measured after 2 weeks by hematoxylin-eosin staining based inverted fluorescent microscopic analysis; type: organism-based, MC-38; details: in vivo, po, 336 h
[9] = AUC (0 to t) in Sprague-Dawley rat at 10 mg/kg, ip measured upto 48 hrs by LC-MS/MS analysis; type: ADME, organism-based; design: time < 48 hrs, dose 10 mg/kg, route ip; details: in vivo
[10] = Clearance in Sprague-Dawley rat at 10 mg/kg, ip measured upto 48 hrs by LC-MS/MS analysis; type: ADME, organism-based; details: in vivo
[11] = Toxicity in PD-1/PD-L1 humanized C57/BL6 mouse implanted with mouse MC38 cells assessed as mortality at 50 mg/kg, IG qd administered on day 5 measured after 2 weeks; type: organism-based, MC-38; details: in vivo, po, 336 h
[12] = Cmax in Sprague-Dawley rat at 40 mg/kg, IG measured upto 48 hrs by LC-MS/MS analysis; type: ADME, organism-based; design: dose 40 mg/kg, time < 48 hrs, route ig; details: in vivo, po
[13] = AUC (0 to infinity) in Sprague-Dawley rat at 8 mg/kg, iv measured upto 48 hrs by LC-MS/MS analysis; type: ADME, organism-based; design: time < 48 hrs, dose 8 mg/kg, route iv; details: in vivo
[14] = test system: MC-38; assay: Immunomodulatory activity in mouse MC38 cells implanted in PD-1/PD-L1 humanized C57/BL6 mouse assessed as decrease in PD-L1 mRNA expression level in tumor at 50 mg/kg, IG qd administered on day 5 measured after 2 weeks by RT-PCR analysis; type: functional, organism-based
[15] = Hepatotoxicity in PD-1/PD-L1 humanized C57/BL6 mouse implanted with mouse MC38 cells assessed as effect on AST level in serum at 50 mg/kg, IG qd administered on day 5 measured after 2 weeks; type: toxicity, organism-based, MC-38; details: in vivo, po, 336 h
[16] = Cmax in Sprague-Dawley rat at 8 mg/kg, iv measured upto 48 hrs by LC-MS/MS analysis; type: ADME, organism-based; design: time < 48 hrs, dose 8 mg/kg, route iv; details: in vivo
[17] = Toxicity in PD-1/PD-L1 humanized C57/BL6 mouse implanted with mouse MC38 cells assessed as morphological change in heart at 50 mg/kg, IG qd administered on day 5 measured after 2 weeks by hematoxylin-eosin staining based inverted fluorescent microscopic analysis; type: organism-based, MC-38; details: in vivo, po, 336 h
[18] = test system: MC-38; assay: Antitumor activity against mouse MC38 cells implanted in PD-1/PD-L1 humanized C57/BL6 mouse assessed as increase in CD8 positive CD4 positive ratio in tumor at 50 mg/kg, IG qd administered on day 5 measured after 2 weeks by flow cytometry analysis; type: functional, organism-based
[19] = Cmax in Sprague-Dawley rat at 10 mg/kg, ip measured upto 48 hrs by LC-MS/MS analysis; type: ADME, organism-based; design: time < 48 hrs, dose 10 mg/kg, route ip; details: in vivo
[20] = target: Programmed cell death protein 1/Programmed cell death 1 ligand 1 (Homo sapiens, UniProt Q9NZQ7); assay: Inhibition of PD-1/PD-L1 interaction (unknown origin) incubated for 1 hr by HTRF assay; type: protein-complex assay
[21] = Half life in Sprague-Dawley rat at 10 mg/kg, ip measured upto 48 hrs by LC-MS/MS analysis; type: ADME, organism-based; details: in vivo
[22] = test system: MC-38; assay: Antitumor activity against mouse MC38 cells implanted in PD-1/PD-L1 humanized C57/BL6 mouse assessed as tumor growth inhibition at 50 mg/kg, IG qd administered on day 5 measured after 2 weeks; type: functional; details: MC-38, po, 336 h, read-out: TGI
[23] = Apparent volume of distribution in Sprague-Dawley rat at 40 mg/kg, IG measured upto 48 hrs by LC-MS/MS analysis; type: ADME, organism-based; details: in vivo, po
[24] = Half life in Sprague-Dawley rat at 40 mg/kg, IG measured upto 48 hrs by LC-MS/MS analysis; type: ADME, organism-based; details: Sprague-Dawley, in vivo, po
[25] = Toxicity in PD-1/PD-L1 humanized C57/BL6 mouse implanted with mouse MC38 cells assessed as morphological change in kidney at 50 mg/kg, IG qd administered on day 5 measured after 2 weeks by hematoxylin-eosin staining based inverted fluorescent microscopic analysis; type: organism-based, MC-38; details: in vivo, po, 336 h
[26] = AUC (0 to infinity) in Sprague-Dawley rat at 40 mg/kg, IG measured upto 48 hrs by LC-MS/MS analysis; type: ADME, organism-based; design: time < 48 hrs, dose 40 mg/kg, route ig; details: Sprague-Dawley, in vivo, po
[27] = Hepatotoxicity in PD-1/PD-L1 humanized C57/BL6 mouse implanted with mouse MC38 cells assessed as effect on ALT level in serum at 50 mg/kg, IG qd administered on day 5 measured after 2 weeks; type: toxicity, organism-based, MC-38; details: in vivo, po, 336 h
[28] = test system: MC-38; assay: Antitumor activity against mouse MC38 cells expressing human PD-L1 protein assessed as reduction in cell viability measured after 48 hrs by CCK-8 assay; type: functional, cell-based; details: MC-38, 48 h
[29] = Tmax in Sprague-Dawley rat at 10 mg/kg, ip measured upto 48 hrs by LC-MS/MS analysis; type: ADME, organism-based; details: in vivo
[30] = test system: MC-38; assay: Immunomodulatory activity in mouse MC38 cells implanted in PD-1/PD-L1 humanized C57/BL6 mouse assessed as increase in CXCR3 mRNA expression level in tumor at 50 mg/kg, IG qd administered on day 5 measured after 2 weeks by RT-PCR analysis; type: functional, organism-based
[31] = Clearance in Sprague-Dawley rat at 8 mg/kg, iv measured upto 48 hrs by LC-MS/MS analysis; type: ADME, organism-based; details: Sprague-Dawley, in vivo
[32] = test system: MC-38; assay: Antitumor activity against mouse MC38 cells implanted in PD-1/PD-L1 humanized C57/BL6 mouse assessed as increase in CD3 positive CD8 positive T cells proportion in tumor at 50 mg/kg, IG qd administered on day 5 measured after 2 weeks by flow cytometry analysis (reference value: 51.8%); type: functional
[33] = Half life in Sprague-Dawley rat at 8 mg/kg, iv measured upto 48 hrs by LC-MS/MS analysis; type: ADME, organism-based; details: Sprague-Dawley, in vivo
[34] = Hepatotoxicity in PD-1/PD-L1 humanized C57/BL6 mouse implanted with mouse MC38 cells assessed as effect on total protein level in serum at 50 mg/kg, IG qd administered on day 5 measured after 2 weeks; type: toxicity, organism-based, MC-38; details: in vivo, po, 336 h

Programmed cell death 1 ligand 1, sequence (Q9NZQ7 whole entry): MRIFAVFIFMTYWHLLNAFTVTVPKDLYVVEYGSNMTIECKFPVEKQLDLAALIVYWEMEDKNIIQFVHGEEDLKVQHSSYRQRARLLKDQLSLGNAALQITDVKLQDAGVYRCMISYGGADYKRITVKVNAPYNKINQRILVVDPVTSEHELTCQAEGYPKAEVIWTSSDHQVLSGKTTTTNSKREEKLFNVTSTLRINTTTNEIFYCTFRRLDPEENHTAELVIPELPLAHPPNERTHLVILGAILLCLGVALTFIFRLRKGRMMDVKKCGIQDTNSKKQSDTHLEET
Programmed cell death protein 1/Programmed cell death 1 ligand 1, sequence (Q15116 whole entry): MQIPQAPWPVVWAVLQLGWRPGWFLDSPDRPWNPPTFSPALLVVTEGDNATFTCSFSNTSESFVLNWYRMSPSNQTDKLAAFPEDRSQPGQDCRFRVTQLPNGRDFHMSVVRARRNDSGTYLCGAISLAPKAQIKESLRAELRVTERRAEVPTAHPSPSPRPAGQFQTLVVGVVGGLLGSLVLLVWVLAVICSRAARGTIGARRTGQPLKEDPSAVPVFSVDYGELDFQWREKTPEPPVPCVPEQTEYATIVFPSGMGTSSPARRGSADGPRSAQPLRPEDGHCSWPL
Programmed cell death protein 1/Programmed cell death 1 ligand 1, sequence (Q9NZQ7 whole entry): as the sequence (Q9NZQ7 whole entry) above

In the case of `N#Cc1cncc(COc2cc(OCc3cccc(-c4ccccc4F)c3Cl)ccc2CNCCO)c1`, the Activity [1] is reported as “Non-Toxic”, the AUC(0-inf) [2] is reported as 10500 ng·h/mL and the Activity [3] is reported as “Active”. The AUC(0-t) at 48 h [4] was 63600 ng·h/mL, the Kd [5] was less than 1 µM and the CL/F [6] was 10.3 mL/min/kg. The AUC(0-t) at 48 h [7] was 11500 ng·h/mL, the Activity [8] was “Non-Toxic” and the AUC(0-t) at 48 h [9] was 9730 ng·h/mL. The CL/F [10] was 20.2 mL/min/kg, the Activity [11] was “Non-Toxic” and the Cmax [12] was 21500 ng/mL. For the same compound, the AUC(0-inf) [13] was 13400 ng·h/mL, the Activity [14] was “Active” and the Activity [15] was “Non-Toxic”. For the same compound, the Cmax [16] was 6230 ng/mL, the Activity [17] was “Non-Toxic” and the Activity [18] was “Active”. It also gave a Cmax [19] of 4160 ng/mL, an IC50 [20] of 24 µM and a half-life [21] of 2.43 h. The inhibition in vivo at 50 mg/kg [22] was 55.2%, the Vz [23] was 1.8 L/kg and the half-life [24] was 1.72 h. For the same compound, the Activity [25] was “Non-Toxic”, the AUC(0-inf) [26] was 65500 ng·h/mL and the Activity [27] was “Non-Toxic”. The IC50 [28] was greater than 8 µM, the Tmax [29] was 0.88 h and the Activity [30] was “Active”. It also gave a clearance [31] of 10 mL/min/kg, an Activity [32] of 67.4% and a half-life [33] of 0.99 h. For the same compound, the Activity [34] was “Non-Toxic”.
